{
  "source": "paper PMC10855334",
  "about": "“Molecular and Functional Characterization of Three General Odorant-Binding Protein 2 Genes in Cydia pomonella (Lepidoptera: Tortricidae)” (International Journal of Molecular Sciences, 2024)",
  "key": {"[1]": {"target": "CpomGOBP2a (Cydia pomonella, UniProt J7G4I1)", "sequence (J7G4I1 entry or part of it)": "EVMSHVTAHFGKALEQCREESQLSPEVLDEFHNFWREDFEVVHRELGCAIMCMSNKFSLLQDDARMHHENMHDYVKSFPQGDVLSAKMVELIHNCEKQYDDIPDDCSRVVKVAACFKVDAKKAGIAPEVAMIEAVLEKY", "assay": "Fluorescence competitive binding assay (1-NPN probe), recombinant CpomGOBP2a", "settings": "for Ki: 2.0 µM protein and 2.0 µM 1-NPN, 50 mM Tris-HCl pH 7.4, competitor 2-20 µM, read-out: dissolution constants (Ki)", "from_the_text": "(§1) The proteins were recombinantly expressed using an Escherichia coli expression system with an N-His tag. The complete coding regions lacking the signal peptide sequence of CpomGOBP2a, CpomGOBP2b, and CpomGOB2c were subcloned into the NdeI/EcoRI restricted and dephosphorylated pET-28b expression vector. The constructed plasmid was subsequently transformed into E. coli BL21 (DE3) competent cells for further expression. The size and purity of the target proteins were confirmed using sodium dodecyl sulfate-polyacrylamide gel electrophoresis (SDS-PAGE) and Western blot. The proteins were stored at −80 °C for subsequent fluorescence competitive binding experiments.\nFluorescence competitive binding assays were conducted on a Synergy4 (BioTek Instruments, Winooski, VT, USA) microplate reader using the F96 Black ELIAS Plate (Xinyou Biotechnology, Hangzhou, China). Probe 1-NPN and the tested ligands were dissolved in spectrophotometric-grade methanol to generate 1.0 mM stock solutions. The fluorescence probe 1-NPN was excited at 337 nm, and emission spectra were recorded between 390 and 490 nm. Initially, to test the binding constants of 1-NPN to the CpomGOBP2, a 2.0 µM solution of protein in 50 mM Tris-HCl (pH = 7.4) was titrated with 1 mM of 1-NPN to achieve various concentrations. Next, the competitive binding of each odorant (Table 1) was examined using 1-NPN as a fluorescent reporter and the odorant as a competitor. The concentrations of protein and 1-NPN were both 2.0 µM; the odorant was included after the protein and 1-NPN were added into the well of the ELIAS Plate for 2 min. The final concentrations of each competitor were 2, 4, 6, 8, 10, 12, 14, 16, 18, and 20 µM. After 2 min of odorant addition, the fluorescence intensity was measured and documented. The volume of mixed solution in each well was maintained at 250 µL. Each interaction was conducted in triplicate."}, "[2]": {"target": "CpomGOBP2b (Cydia pomonella, UniProt J7GAV3)", "sequence (J7GAV3 entry or part of it)": "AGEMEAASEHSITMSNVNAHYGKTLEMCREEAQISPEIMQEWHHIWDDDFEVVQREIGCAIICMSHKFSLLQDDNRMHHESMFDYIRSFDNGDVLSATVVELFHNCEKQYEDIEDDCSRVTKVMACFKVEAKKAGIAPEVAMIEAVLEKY", "assay": "Fluorescence competitive binding assay (1-NPN probe), recombinant CpomGOBP2b", "settings": "2.0 µM protein in 50 mM Tris-HCl pH 7.4 titrated with 1-NPN, read-out: dissociation constant with 1-NPN", "from_the_text": "as §1\n(§2) Fluorescence competitive binding assays were conducted on a Synergy4 (BioTek Instruments, Winooski, VT, USA) microplate reader using the F96 Black ELIAS Plate (Xinyou Biotechnology, Hangzhou, China). Probe 1-NPN and the tested ligands were dissolved in spectrophotometric-grade methanol to generate 1.0 mM stock solutions. The fluorescence probe 1-NPN was excited at 337 nm, and emission spectra were recorded between 390 and 490 nm. Initially, to test the binding constants of 1-NPN to the CpomGOBP2, a 2.0 µM solution of protein in 50 mM Tris-HCl (pH = 7.4) was titrated with 1 mM of 1-NPN to achieve various concentrations. […] After 2 min of odorant addition, the fluorescence intensity was measured and documented. […]"}, "[3]": {"target": "CpomGOBP2c (Cydia pomonella)", "sequence (J7GAV3 entry or part of it)": "as above", "assay": "Fluorescence competitive binding assay (1-NPN probe), recombinant CpomGOBP2c", "settings": "2.0 µM protein in 50 mM Tris-HCl pH 7.4 titrated with 1-NPN, read-out: dissociation constant with 1-NPN", "from_the_text": "as §1, §2"}},
  "data": [
    {"compound": "c1ccc(Nc2cccc3ccccc23)cc1", "note": "[1-NPN]", "values": [
      {"measurement": "Kd", "setting": "[1]; 2.0 µM protein in 50 mM Tris-HCl pH 7.4 titrated with 1-NPN, read-out: dissociation constant with 1-NPN", "result": 12.6, "unit": "µM"},
      {"measurement": "Kd", "setting": "[2]", "result": 27.5, "unit": "µM"},
      {"measurement": "Kd", "setting": "[3]", "result": 18.9, "unit": "µM"}
    ]},
    {"compound": "CCCCCCCC(=O)OCCCC", "note": "[butyl octanoate]", "values": [
      {"measurement": "Ki", "setting": "[1]", "result": 8.6, "unit": "µM"}
    ]},
    {"compound": "C/C=C/C=C/CCCCCCCO", "note": "[codlemone]", "values": [
      {"measurement": "Ki", "setting": "[1]", "result": 22.7, "unit": "µM"}
    ]},
    {"compound": "CCCCC/C=C\\C=C\\C(=O)OCC", "note": "[ethyl (2E,4Z)-deca-2,4-dienoate]", "values": [
      {"measurement": "Ki", "setting": "[1]", "result": 9.15, "unit": "µM"}
    ]},
    {"compound": "CC(=O)CC/C=C(\\C)CCC=C(C)C", "note": "[geranylacetone]", "values": [
      {"measurement": "Ki", "setting": "[1]", "result": 22.9, "unit": "µM"}
    ]}
  ]
}
